Reference: article PMC6407917, “Identification of GSK3186899/DDD853651 as a Preclinical Development Candidate for the Treatment of Visceral Leishmaniasis” (Journal of Medicinal Chemistry, 2018)

Assays:
Experiment in all cases: biochemical
Design in all cases: species or system HEK293/K-562/placenta mixed human extract; Kinobeads chemoproteomic competition binding, quantified by TMT LC-MS/MS, dose response up to 20 uM
[1] = molecular target: HCK (Homo sapiens, UniProt P08631)
[2] = molecular target: NLK (Homo sapiens, UniProt Q9UBE8)
[3] = molecular target: PDIK1L (Homo sapiens, UniProt Q8N165)
[4] = molecular target: SNRK (Homo sapiens, UniProt Q9NRH2)
[5] = molecular target: STK11 (Homo sapiens, UniProt Q15831)
[6] = molecular target: NEK3 (Homo sapiens, UniProt P51956)
[7] = molecular target: EPHB3 (Homo sapiens, UniProt P54753)
[8] = molecular target: STK17A (Homo sapiens, UniProt Q9UEE5)
[9] = molecular target: AAK1 (Homo sapiens, UniProt Q2M2I8)
[10] = molecular target: TESK2 (Homo sapiens, UniProt Q96S53)
[11] = molecular target: MASTL (Homo sapiens, UniProt Q96GX5)
[12] = molecular target: PTK2B (Homo sapiens, UniProt Q14289)
[13] = molecular target: PRKCD (Homo sapiens, UniProt Q05655)
[14] = molecular target: MAP2K6 (Homo sapiens, UniProt P52564)
[15] = molecular target: SGK3 (Homo sapiens, UniProt Q96BR1)
[16] = molecular target: TAOK2 (Homo sapiens, UniProt Q9UL54)
[17] = molecular target: CSK (Homo sapiens, UniProt P41240)
[18] = molecular target: NTRK1 (Homo sapiens, UniProt P04629)
[19] = molecular target: CAMK2A (Homo sapiens, UniProt Q9UQM7)
[20] = molecular target: GSK3B (Homo sapiens, UniProt P49841)
[21] = molecular target: AURKA (Homo sapiens, UniProt O14965)

PTK2B, sequence (Q14289 whole entry): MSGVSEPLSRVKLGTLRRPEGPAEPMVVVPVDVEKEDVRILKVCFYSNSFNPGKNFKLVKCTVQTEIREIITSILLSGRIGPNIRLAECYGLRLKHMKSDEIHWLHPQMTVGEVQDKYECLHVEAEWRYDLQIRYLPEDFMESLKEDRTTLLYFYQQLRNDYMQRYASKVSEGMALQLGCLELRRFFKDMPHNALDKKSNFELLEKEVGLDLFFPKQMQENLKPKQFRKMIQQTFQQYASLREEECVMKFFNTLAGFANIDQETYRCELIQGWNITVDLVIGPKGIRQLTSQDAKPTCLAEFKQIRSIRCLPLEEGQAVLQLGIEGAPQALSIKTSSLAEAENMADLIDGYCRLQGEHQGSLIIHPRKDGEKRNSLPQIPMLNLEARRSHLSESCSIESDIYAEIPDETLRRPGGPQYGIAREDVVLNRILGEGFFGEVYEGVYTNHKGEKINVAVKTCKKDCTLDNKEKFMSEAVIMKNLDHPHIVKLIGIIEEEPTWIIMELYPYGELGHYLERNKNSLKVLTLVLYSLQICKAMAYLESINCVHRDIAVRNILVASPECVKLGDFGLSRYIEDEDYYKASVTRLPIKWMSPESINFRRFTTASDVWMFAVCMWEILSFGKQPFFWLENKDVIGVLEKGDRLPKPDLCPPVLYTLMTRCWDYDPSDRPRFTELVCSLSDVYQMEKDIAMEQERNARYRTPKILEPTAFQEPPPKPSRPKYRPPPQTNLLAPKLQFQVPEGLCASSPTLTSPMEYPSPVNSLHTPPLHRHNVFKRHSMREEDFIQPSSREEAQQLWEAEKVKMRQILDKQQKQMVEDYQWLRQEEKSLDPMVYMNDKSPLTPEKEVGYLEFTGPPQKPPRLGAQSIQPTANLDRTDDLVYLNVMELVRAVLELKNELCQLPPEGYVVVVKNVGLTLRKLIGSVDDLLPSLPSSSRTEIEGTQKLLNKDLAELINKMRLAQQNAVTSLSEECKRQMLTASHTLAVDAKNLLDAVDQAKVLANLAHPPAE
SNRK, sequence (Q9NRH2 whole entry): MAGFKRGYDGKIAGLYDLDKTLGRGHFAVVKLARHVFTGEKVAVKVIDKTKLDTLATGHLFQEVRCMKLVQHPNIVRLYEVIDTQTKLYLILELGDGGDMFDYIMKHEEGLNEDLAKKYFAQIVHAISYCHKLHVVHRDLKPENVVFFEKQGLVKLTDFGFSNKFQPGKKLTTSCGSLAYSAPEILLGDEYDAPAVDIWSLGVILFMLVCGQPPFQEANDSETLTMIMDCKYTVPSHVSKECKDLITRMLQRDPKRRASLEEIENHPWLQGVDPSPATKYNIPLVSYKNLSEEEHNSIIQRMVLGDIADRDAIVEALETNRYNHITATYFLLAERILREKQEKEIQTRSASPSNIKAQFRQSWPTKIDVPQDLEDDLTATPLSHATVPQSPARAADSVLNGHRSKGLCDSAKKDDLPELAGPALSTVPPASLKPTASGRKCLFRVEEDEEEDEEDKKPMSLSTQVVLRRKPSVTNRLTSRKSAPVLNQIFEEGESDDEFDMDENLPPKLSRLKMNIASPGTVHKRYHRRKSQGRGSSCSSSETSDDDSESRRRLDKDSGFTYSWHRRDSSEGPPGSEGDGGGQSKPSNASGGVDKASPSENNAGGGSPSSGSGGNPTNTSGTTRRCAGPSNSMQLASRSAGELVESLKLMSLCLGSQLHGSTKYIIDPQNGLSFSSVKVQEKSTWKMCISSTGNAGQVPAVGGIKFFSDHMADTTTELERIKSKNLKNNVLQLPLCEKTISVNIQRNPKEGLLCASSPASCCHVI
MASTL, sequence (Q96GX5 whole entry): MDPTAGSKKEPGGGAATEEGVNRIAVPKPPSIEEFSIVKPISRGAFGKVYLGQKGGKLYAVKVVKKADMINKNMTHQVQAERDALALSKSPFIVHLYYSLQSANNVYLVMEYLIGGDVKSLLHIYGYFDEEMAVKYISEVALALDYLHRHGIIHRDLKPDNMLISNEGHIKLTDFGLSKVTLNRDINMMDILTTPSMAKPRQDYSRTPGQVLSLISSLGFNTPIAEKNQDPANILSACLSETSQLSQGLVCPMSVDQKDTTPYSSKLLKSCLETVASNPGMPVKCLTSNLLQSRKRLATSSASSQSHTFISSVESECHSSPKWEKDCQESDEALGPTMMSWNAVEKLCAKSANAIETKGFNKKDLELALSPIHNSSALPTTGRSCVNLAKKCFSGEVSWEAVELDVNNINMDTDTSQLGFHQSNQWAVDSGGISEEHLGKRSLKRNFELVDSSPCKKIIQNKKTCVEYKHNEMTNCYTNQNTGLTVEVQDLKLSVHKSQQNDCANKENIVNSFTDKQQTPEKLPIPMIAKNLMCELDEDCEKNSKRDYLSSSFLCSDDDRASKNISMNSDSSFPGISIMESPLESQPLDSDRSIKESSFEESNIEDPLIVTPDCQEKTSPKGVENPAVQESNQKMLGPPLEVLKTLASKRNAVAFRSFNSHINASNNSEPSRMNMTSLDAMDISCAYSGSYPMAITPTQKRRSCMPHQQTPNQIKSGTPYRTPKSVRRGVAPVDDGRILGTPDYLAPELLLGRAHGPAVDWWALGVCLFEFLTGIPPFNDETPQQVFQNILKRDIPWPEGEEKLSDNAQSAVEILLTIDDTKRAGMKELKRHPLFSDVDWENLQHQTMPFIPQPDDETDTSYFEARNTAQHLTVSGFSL
STK11, sequence (Q15831 whole entry): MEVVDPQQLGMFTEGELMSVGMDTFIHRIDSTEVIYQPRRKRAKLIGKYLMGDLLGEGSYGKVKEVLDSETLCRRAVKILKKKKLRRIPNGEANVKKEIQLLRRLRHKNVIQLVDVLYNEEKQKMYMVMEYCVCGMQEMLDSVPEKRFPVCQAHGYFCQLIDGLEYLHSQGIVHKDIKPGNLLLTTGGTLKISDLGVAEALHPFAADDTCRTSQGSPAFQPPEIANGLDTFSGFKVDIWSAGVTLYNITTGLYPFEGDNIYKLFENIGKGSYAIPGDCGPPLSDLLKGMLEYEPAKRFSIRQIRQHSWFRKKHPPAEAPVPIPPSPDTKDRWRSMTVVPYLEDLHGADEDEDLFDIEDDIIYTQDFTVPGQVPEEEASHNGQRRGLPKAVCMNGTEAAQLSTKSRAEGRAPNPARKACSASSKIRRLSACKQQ
CSK, sequence (P41240 whole entry): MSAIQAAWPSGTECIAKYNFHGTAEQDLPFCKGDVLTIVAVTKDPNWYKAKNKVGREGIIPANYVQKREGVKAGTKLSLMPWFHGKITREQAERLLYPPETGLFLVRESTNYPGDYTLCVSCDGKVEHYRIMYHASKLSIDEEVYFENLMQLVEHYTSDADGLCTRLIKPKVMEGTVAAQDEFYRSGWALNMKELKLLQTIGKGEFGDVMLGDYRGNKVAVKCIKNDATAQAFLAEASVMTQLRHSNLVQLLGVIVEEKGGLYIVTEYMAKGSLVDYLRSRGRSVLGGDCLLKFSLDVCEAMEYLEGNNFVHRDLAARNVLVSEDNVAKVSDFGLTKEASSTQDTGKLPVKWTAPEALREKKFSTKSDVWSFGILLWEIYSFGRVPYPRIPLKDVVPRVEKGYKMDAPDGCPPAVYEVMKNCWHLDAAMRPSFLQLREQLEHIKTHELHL
HCK, sequence (P08631 whole entry): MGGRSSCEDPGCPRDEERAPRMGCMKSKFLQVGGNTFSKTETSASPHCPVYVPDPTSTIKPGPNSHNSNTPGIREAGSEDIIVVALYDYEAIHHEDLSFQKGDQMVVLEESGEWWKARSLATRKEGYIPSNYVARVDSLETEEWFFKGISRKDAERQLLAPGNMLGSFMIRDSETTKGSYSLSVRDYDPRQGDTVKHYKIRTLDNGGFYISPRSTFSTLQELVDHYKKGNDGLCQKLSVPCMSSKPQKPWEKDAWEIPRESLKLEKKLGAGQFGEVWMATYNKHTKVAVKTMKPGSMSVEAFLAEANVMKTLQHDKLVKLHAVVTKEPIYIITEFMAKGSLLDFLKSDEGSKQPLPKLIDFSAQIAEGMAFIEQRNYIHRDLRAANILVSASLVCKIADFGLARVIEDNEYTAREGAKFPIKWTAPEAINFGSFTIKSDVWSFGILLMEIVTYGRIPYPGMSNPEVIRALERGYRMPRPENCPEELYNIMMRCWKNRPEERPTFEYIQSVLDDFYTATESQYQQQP
NTRK1, sequence (P04629 whole entry): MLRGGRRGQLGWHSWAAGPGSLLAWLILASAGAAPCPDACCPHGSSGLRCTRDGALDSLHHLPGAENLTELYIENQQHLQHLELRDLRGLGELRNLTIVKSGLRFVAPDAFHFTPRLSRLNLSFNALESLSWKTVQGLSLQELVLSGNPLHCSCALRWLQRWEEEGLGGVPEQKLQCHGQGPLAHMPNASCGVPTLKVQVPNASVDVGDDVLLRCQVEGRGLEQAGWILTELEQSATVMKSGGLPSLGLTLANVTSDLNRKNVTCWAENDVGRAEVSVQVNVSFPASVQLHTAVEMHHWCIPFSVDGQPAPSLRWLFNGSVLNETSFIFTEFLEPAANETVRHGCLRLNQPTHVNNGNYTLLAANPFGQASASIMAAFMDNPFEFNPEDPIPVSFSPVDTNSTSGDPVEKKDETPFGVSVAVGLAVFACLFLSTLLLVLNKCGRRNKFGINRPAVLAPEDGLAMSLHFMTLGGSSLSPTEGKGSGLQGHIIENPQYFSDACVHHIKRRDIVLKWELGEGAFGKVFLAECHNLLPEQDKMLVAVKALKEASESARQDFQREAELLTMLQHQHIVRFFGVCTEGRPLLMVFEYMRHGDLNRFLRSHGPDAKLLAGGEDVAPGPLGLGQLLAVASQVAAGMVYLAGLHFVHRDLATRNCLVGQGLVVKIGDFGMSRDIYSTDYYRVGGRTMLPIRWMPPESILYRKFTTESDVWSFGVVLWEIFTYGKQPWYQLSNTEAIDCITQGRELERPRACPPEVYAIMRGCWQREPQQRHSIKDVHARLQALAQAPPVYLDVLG

## COc1nc(N[C@H]2CC[C@H](NS(=O)(=O)CC(C)C)CC2)nc2[nH]nc(N3CCOC[C@H]3C)c12 [compound 39, N-(trans-4-((4-Methoxy-3-((R)-3-methylmorpholino)-1H-pyrazolo[3,4-d]pyrimidin-6-yl)amino)cyclohexyl)-2-methylpropane-1-sulfonamide]
[1]
  IC50: ≥ 20 µM
[2]
  IC50: 3.5 µM
[3]
  IC50: ≥ 20 µM
[4]
  IC50: ≥ 20 µM
[5]
  IC50: ≥ 20 µM
[6]
  IC50: ≥ 20 µM
[7]
  IC50: ≥ 20 µM
[8]
  IC50: ≥ 20 µM
[9]
  IC50: ≥ 20 µM
[10]
  IC50: ≥ 20 µM
[11]
  IC50: ≥ 20 µM
[12]
  IC50: ≥ 20 µM
[13]
  IC50: ≥ 20 µM
[14]
  IC50: ≥ 20 µM
[15]
  IC50: ≥ 20 µM
[16]
  IC50: ≥ 20 µM
[17]
  IC50: ≥ 20 µM
[18]
  IC50: ≥ 20 µM
[19]
  IC50: ≥ 20 µM
[20]
  IC50: ≥ 20 µM
[21]
  IC50: ≥ 20 µM
